The text below walks through data of patent US20160250127A1, “USE OF A POLYOL IN THE REMINERALISATION OF ENAMEL” (ROQUETTE FRERES, priority 2013, published 2016).

The test system of the test is early carious lesions (enamel lesions of anterior maxillary teeth). Description: QLF analysis of enamel lesion remineralization, 6-month clinical study of sugar-free chewing gums. The following applies: for stopping and reversing the oral white lesions, compared with the two control groups: 6-month study; for ΔF compared with gumbase group and control group without gum: after 3 months, P<0.01; for ΔF compared with the two control groups (gumbase and no gum) / ΔQ compared with the two control groups (gumbase and no gum): after 6 months, p<0.01. It counts as in vivo, human. The source says: The QLF™ (Quantitative Light-induced Fluorescence) method is a dental diagnostic tool for the quantitative evaluation, in vivo and in vitro, of dental carious lesions. The apparatus is equipped with a camera and is connected to a computer (using a program specific to QLF™). The probe, which emits a blue light (xenon lamp+filter), is passed over the tooth tested, which retransmits this light in the form of fluorescence. […] This photograph or instantaneous image is then processed using the software of the QLF™ which then recreates a reconstituted image representing the carious lesion. With this method, the real-time fluorescent images are entered into the computer and stored in an image database. Quantitative analysis of the images allows the user to quantify parameters such as loss of minerals, lesion depth, lesion size, size of the spots present on the teeth and seriousness of the various lesions with great precision and repeatability. The QLF™ method is based on the autofluorescence of the teeth. When the teeth are illuminated by the high-intensity blue light, they will begin to emit light in the green part of the spectrum. The intensity of the fluorescence of the dental material is directly related to the mineral content of the enamel. Since the QLF™ method uses fluorescence to reveal the dental carie, the contrast between the demineralized enamel and the healthy enamel is increased. Thus, the absence of specular reflection in the images obtained by the QLF™ method facilitates the calculation of the size and seriousness of the lesion by the digital image processing system. Evaluation of the efficacy against caries of a sugar-free chewing gum containing maltitol sold by the applicant under the brand SweetPearl™ using a study model consisting of various appropriate control groups (gum and maltitol, gum and xylitol, gum without polyol and no chewing gum) and the QLF™ method. Children from 8 to 13 years old, in good health, were included in the study. Their parents were informed about the study by the teachers of the school and signed an informed consent form. […] In total, 420 pupils completed a six-month study. This study is a double-blind (subjects, caregivers and examiners), multicenter, parallel, random clinical study carried out in schools. The evaluation of the dental plaque uses the Silness method and the Loe index. The digital images were taken using a digital photographic apparatus, and those of the QLF™ method were taken using the QLF™ apparatus separately. Before this examination, all the dental plaque was removed from the surface of the teeth. All the procedures were supervised by qualified personnel (dentists/hygienists). The QLF™ method was used to monitor the evolution of demineralization and remineralization of the enamel lesions. During the visit, fluorescent images were taken of the six (or fewer) anterior maxillary teeth. An image of each tooth was taken at each visit in order to ensure that all the anterior teeth were photographed. All the images taken using the QLF™ apparatus were analyzed by an experienced individual in order to determine the “mineral condition” of each tooth, using proprietory software (QLF 2.00, Inspektor, The Netherlands). The QLF™ method makes it possible to control three distinct parameters: ΔF, the area of the lesion and ΔQ. ΔF is the percentage loss of fluorescence between the comparison of a healthy enamel and an identified lesion. The detection threshold for ΔF is 5%, which means that a loss of fluorescence below this threshold is considered to be background noise and therefore not significant. The area of the lesion is calculated by means of the pixels taken into account by the analysis software as representing the demineralized enamel (i.e. those with a loss of fluorescence of at least 5%). ΔQ is the product of ΔF multiplied by the area of the lesion and represents the volume of this lesion. […]

[1] abbreviates: 3 Months, 2 chewing gums (up to 60% polyol) 5 times per day.
Where [2] appears, read: 6 Months, 2 chewing gums (up to 60% polyol) 5 times per day.
Setting [3] is: Baseline, children 8-13 years, mean ± spread.

The structures appear in SMILES notation.

For the compound `OC[C@@H](O)[C@@H](O[C@H]1O[C@H](CO)[C@@H](O)[C@H](O)[C@H]1O)[C@H](O)[C@@H](O)CO` [Maltitol, maltitol], the “stopping and reversing the oral white lesions, compared with the two control groups” value is reported as “significantly more effective”; the “ΔF compared with gumbase group and control group without gum” value was “significantly different”; the “ΔF compared with the two control groups (gumbase and no gum)” value is on record as “considerable differences”; the “ΔQ compared with the two control groups (gumbase and no gum)” value was “considerable differences”. Under setting [1], the “QLF parameter Area (area of the lesion)” value turned out to be 2.33 ± 1.90, the “QLF parameter ΔF (percentage loss of fluorescence)” value is −8.78 ± 1.78 and the “QLF parameter ΔQ (ΔF multiplied by area of the lesion)” value (shortened to “QLF parameter ΔQ”) is recorded as −20.62 ± 18.97. Moreover, under setting [2], the “QLF parameter Area (area of the lesion)” value came to 2.18 ± 1.63, the “QLF parameter ΔF (percentage loss of fluorescence)” value is listed as −8.42 ± 1.87 and the “QLF parameter ΔQ” value is reported as −16.69 ± 15.15. Under “Baseline, children 8-13 years”, the “QLF parameter ΔF (percentage loss of fluorescence)” value was −9.38 ± 1.79 and the “QLF parameter ΔQ” value is on record as −24.87 ± 23.06. For the same compound, the “QLF parameter Area (area of the lesion)” value under setting [3] is reported as 2.47 ± 1.95.

Take `OC[C@@H](O)[C@H](O)[C@@H](O)CO` [Xylitol, xylitol]: the “stopping and reversing the oral white lesions, compared with the two control groups” value was “significantly more effective”; the “ΔF compared with gumbase group and control group without gum” value is “significantly different”; the “ΔF compared with the two control groups (gumbase and no gum)” value is “considerable differences”; the “ΔQ compared with the two control groups (gumbase and no gum)” value is reported as “considerable differences”. Besides, under setting [1], the “QLF parameter Area (area of the lesion)” value came out at 2.43 ± 1.72, the “QLF parameter ΔF (percentage loss of fluorescence)” value was −8.56 ± 2.02 and the “QLF parameter ΔQ” value was −22.10 ± 18.85. Under setting [2], the “QLF parameter Area (area of the lesion)” value is on record as 2.31 ± 1.85, the “QLF parameter ΔF (percentage loss of fluorescence)” value is given as −8.37 ± 1.78 and the “QLF parameter ΔQ” value is listed as −18.19 ± 21.29. In addition, under “Baseline, children 8-13 years”, the “QLF parameter ΔF (percentage loss of fluorescence)” value is −9.36 ± 1.92 and the “QLF parameter ΔQ” value is −25.95 ± 24.66. Moreover, under setting [3], the “QLF parameter Area (area of the lesion)” value was determined as 2.58 ± 1.91.
